Assay results reported in publication PMC9329436, “Optimization of the 4-anilinoquin(az)oline scaffold as epidermal growth factor receptor (EGFR) inhibitors for chordoma utilizing a toxicology profiling assay platform” (Scientific Reports, 2022).
Read-outs that look alike come from different tables or passages of the source.

Experiments:
Assay type in all cases: biochemical
[1] = target: 320 wild-type protein kinases (Homo sapiens, UniProt P11362); conditions: singlicate
Text: (§1) Table S4. Profiling of two compounds at two concentrations against 320 wild-type protein kinases; singlicate measurement; Residual activities (% of control).

[2] = target: T1, 320 wild-type protein kinases (Homo sapiens, UniProt P30530); conditions: AXL, singlicate
T1 sequence (P30530 26-894): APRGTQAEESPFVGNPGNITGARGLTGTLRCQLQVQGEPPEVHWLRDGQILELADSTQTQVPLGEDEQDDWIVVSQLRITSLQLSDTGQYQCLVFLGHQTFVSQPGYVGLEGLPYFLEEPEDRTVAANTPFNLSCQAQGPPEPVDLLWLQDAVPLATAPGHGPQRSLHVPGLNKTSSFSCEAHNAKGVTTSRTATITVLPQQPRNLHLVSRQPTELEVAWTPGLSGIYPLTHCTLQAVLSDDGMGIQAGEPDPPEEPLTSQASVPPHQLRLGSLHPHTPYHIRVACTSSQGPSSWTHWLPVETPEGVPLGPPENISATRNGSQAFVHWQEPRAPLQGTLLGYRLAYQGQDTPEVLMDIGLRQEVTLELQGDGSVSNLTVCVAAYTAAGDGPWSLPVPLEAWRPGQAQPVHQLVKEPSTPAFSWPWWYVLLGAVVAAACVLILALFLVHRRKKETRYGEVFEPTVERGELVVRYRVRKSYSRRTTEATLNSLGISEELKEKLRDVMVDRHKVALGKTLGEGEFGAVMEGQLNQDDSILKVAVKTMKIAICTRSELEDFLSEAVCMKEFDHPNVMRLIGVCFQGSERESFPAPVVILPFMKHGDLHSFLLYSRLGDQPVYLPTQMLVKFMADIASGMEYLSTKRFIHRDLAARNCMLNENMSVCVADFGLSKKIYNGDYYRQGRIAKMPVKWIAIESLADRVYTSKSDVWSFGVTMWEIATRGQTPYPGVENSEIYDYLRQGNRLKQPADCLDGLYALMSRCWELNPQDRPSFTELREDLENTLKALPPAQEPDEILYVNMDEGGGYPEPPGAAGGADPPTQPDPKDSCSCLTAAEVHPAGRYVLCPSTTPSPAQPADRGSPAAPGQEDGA
Text: as §1

[3] = target: 320 wild-type protein kinases (Homo sapiens, UniProt P54764); conditions: singlicate
Chain of 320 wild-type protein kinases (Homo sapiens, UniProt P54764) (P54764 20-986): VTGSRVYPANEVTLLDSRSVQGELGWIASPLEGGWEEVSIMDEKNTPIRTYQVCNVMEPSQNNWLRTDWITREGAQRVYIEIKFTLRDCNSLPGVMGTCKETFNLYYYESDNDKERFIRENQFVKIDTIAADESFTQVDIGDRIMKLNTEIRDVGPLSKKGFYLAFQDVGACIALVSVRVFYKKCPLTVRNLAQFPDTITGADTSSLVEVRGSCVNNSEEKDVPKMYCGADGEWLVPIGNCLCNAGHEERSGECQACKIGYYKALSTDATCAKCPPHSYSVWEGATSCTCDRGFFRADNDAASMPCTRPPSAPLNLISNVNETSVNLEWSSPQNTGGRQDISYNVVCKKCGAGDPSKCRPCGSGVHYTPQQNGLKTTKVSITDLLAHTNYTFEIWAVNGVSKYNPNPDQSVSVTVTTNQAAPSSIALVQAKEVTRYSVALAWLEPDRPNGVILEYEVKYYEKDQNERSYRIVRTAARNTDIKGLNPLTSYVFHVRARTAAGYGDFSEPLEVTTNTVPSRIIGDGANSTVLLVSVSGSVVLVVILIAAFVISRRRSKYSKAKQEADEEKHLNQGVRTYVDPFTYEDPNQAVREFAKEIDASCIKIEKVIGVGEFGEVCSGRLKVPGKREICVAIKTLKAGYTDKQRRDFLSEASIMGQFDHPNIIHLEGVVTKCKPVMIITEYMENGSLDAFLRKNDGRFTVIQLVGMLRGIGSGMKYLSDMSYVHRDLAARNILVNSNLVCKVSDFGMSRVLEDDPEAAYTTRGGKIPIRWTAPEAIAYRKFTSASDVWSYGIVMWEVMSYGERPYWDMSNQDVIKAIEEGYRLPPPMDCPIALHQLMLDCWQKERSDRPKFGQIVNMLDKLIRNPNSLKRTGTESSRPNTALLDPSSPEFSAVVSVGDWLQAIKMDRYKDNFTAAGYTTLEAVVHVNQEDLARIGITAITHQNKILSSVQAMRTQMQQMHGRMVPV
Text: as §1

[4] = target: 320 wild-type protein kinases (Homo sapiens, UniProt Q00535); conditions: singlicate
Chain of 320 wild-type protein kinases (Homo sapiens, UniProt Q00535) (Q00535 whole entry): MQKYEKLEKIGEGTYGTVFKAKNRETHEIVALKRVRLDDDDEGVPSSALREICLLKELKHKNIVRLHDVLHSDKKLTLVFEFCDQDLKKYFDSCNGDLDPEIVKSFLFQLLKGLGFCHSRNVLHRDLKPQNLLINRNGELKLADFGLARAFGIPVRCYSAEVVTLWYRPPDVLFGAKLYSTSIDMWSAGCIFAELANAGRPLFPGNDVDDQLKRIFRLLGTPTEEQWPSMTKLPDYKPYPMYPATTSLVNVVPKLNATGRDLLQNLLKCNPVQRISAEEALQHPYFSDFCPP
Text: as §1

[5] = target: 320 wild-type protein kinases (Homo sapiens, UniProt Q9NYL2); conditions: kinase ZAK, singlicate
Chain of 320 wild-type protein kinases (Homo sapiens, UniProt Q9NYL2) (Q9NYL2 whole entry): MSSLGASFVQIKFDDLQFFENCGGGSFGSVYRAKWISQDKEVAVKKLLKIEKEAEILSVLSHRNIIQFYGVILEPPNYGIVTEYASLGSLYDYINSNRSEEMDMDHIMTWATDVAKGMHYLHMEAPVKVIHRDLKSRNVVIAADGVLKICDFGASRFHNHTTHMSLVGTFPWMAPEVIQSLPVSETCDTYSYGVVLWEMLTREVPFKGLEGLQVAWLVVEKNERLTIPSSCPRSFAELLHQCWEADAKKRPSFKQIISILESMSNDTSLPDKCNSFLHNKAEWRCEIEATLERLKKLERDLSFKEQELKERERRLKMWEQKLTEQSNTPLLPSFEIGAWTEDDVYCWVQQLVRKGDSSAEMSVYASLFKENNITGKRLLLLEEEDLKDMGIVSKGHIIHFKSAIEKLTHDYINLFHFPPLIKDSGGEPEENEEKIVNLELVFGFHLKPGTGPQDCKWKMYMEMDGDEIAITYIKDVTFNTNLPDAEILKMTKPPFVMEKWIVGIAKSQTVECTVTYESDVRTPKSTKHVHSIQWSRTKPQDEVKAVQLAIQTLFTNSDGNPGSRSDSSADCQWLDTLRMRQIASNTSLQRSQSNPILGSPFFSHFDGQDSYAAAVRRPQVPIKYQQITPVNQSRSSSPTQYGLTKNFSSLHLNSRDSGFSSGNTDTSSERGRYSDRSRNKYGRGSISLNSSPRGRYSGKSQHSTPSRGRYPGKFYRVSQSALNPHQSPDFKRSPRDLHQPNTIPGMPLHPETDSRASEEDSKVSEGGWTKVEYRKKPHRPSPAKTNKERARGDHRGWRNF
Text: as §1

[6] = target: T2, 320 wild-type protein kinases (Homo sapiens, UniProt Q9UL54); conditions: kinase TAOK2, singlicate
T2 sequence (Q9UL54 1-1235): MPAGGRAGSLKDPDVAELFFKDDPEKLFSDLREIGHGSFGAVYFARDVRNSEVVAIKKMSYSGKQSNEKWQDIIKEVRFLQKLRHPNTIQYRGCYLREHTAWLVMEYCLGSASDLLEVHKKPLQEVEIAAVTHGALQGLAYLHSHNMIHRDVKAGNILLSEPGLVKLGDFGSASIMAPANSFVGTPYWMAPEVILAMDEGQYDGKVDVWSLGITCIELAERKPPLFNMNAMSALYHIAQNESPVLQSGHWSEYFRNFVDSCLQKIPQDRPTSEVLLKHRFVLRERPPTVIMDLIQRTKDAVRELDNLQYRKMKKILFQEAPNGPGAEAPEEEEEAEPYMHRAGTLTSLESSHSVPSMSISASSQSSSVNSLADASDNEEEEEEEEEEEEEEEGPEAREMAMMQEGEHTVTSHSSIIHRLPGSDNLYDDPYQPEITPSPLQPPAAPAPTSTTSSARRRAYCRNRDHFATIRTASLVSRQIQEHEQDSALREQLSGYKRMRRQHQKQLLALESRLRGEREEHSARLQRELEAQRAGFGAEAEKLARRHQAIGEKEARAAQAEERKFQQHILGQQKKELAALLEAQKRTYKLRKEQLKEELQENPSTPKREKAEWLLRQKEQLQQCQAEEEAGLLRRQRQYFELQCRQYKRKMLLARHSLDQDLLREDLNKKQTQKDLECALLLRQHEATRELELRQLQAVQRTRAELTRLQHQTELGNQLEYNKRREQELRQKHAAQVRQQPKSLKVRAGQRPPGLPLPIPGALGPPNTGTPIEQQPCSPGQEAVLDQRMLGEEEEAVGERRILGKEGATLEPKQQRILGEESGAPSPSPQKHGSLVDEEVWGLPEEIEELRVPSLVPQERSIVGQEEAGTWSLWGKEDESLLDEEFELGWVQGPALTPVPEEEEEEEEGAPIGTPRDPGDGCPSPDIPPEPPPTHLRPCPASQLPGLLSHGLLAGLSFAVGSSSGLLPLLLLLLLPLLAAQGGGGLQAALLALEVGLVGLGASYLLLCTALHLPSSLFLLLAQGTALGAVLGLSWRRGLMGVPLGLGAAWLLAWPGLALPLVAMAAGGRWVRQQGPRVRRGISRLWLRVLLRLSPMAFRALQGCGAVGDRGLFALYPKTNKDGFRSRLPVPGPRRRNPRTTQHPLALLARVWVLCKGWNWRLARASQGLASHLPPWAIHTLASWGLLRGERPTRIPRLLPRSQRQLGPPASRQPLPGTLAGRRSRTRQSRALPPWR
Text: as §1

Chain of 320 wild-type protein kinases (Homo sapiens, UniProt P11362) (P11362 22-822): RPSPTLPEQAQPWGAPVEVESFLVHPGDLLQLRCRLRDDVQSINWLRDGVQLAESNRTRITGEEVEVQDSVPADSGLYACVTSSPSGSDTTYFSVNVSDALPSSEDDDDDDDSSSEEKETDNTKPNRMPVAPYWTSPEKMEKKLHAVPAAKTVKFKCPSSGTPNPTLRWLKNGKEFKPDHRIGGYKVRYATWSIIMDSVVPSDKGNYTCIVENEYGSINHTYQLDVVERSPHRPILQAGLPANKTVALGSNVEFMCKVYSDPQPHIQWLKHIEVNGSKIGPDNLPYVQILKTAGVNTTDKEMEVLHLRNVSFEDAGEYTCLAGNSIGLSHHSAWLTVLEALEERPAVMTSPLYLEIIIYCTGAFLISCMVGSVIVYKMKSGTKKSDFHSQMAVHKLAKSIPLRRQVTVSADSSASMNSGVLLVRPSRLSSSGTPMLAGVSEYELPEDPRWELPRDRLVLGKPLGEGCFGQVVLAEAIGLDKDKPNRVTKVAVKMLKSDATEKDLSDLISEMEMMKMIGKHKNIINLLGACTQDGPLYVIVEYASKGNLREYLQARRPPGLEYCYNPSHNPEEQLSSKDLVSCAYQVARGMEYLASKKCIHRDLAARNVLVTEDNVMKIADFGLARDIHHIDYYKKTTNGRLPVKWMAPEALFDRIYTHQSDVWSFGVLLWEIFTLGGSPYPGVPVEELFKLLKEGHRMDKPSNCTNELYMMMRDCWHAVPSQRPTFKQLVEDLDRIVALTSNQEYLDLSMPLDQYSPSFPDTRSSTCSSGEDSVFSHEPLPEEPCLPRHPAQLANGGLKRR

SMILES: C#Cc1cc(Nc2ncnc3cc(I)ccc23)ccc1Cl [Compound 41]
- Residual activity ([1]; FGF-R1, 1.0E-06 M): 85 % of control
- Residual activity ([1]; FGF-R1, 1.0E-07 M): 107 % of control
- Residual activity ([2]; 1.0E-06 M): 97 % of control
- Residual activity ([2]; 1.0E-07 M): 116 % of control
- Residual activity ([3]; EPHA4, 1.0E-06 M): 83 % of control
- Residual activity ([3]; EPHA4, 1.0E-07 M): 96 % of control
- Residual activity ([4]; CDK5/p25NCK, 1.0E-06 M): 100 % of control
- Residual activity ([4]; CDK5/p25NCK, 1.0E-07 M): 119 % of control
- Residual activity ([4]; CDK5/p35NCK, 1.0E-06 M): 86 % of control
- Residual activity ([4]; CDK5/p35NCK, 1.0E-07 M): 87 % of control
- Residual activity, ZAK ([5]; assay conc. 1.0E-06 M): 85 % of control
- Residual activity, ZAK ([5]; assay conc. 1.0E-07 M): 98 % of control
- Residual activity, TAOK2 ([6]; assay conc. 1.0E-06 M): 96 % of control
- Residual activity, TAOK2 ([6]; assay conc. 1.0E-07 M): 110 % of control

SMILES: C#Cc1cc(Nc2ncnc3cc(OC)c(OC)cc23)ccc1Cl [Compound 45]
- Residual activity ([1]; FGF-R1, 1.0E-06 M): 92 % of control
- Residual activity ([1]; FGF-R1, 1.0E-07 M): 100 % of control
- Residual activity ([2]; 1.0E-06 M): 80 % of control
- Residual activity ([2]; 1.0E-07 M): 103 % of control
- Residual activity ([3]; EPHA4, 1.0E-06 M): 61 % of control
- Residual activity ([3]; EPHA4, 1.0E-07 M): 99 % of control
- Residual activity ([4]; CDK5/p25NCK, 1.0E-06 M): 103 % of control
- Residual activity ([4]; CDK5/p25NCK, 1.0E-07 M): 98 % of control
- Residual activity ([4]; CDK5/p35NCK, 1.0E-06 M): 88 % of control
- Residual activity ([4]; CDK5/p35NCK, 1.0E-07 M): 88 % of control
- Residual activity, ZAK ([5]; assay conc. 1.0E-06 M): 80 % of control
- Residual activity, ZAK ([5]; assay conc. 1.0E-07 M): 100 % of control
- Residual activity, TAOK2 ([6]; assay conc. 1.0E-06 M): 106 % of control
- Residual activity, TAOK2 ([6]; assay conc. 1.0E-07 M): 109 % of control
